Tests used:
CaMKIV defective mice = test: Tail-suspension and forced swim methods in CaMKIV defective mice; format: in vivo
Experimental: OBX mice were originally established as depression model mice although a deterioration of cognitive function was observed. Depression was analyzed by a tail-suspension method (a) and a forced swim method (b). The tail-suspension method is a method of pinching the tail of a mouse and hanging the mouse upside down. If the mouse hung has depression, immobility time is long. Since a normal mouse moves even if it is hung, the immobility time is short. In the forced swim method, a mouse is forced to swim in water in a beaker. A mouse having depression neither swims nor moves (just floating). Thus the immobility time is measured. Immobility time was long in OBX mice both in the tail-suspension method (a) and the forced swim method (b). The immobility time of a TP-014 chronic administration group (2 weeks, in the same administration method as that previously mentioned) was improved.
CaMKIV induced by Kir6.1 channel was analyzed by using CaMKIV defective mice (n=5, per group*) in the same manner as in FIG. 12. Acceleration of depression-like symptom was observed also in the CaMKIV defective mice. […] TP-014 had no effect on CaMKIV depression-like symptom (increase of immobility time). […] CaMKIV defective mice were obtained from professor, Hiroyuki Sakagami, Kitasato University School of Medicine (Takao K et al., PLoS One 2010, 5, e9460).

Kir6.1 channel = molecular target: T1, Kir6.1 channel (Mus musculus, UniProt P97794); test: Patch-clamp measurement of outward potassium current in Kir6.1 channel-overexpressing cells; format: cell-based; conditions: 10 nM TP-014, Test Example 15 (Kir6.1 channel)
T1 construct: expressed in transfected cells; host or cells: Neuro2A (N2A) cells, transient transfection with pcDNA3.1-Kir6.1 (gift of Prof. Toru Ishizuka, Tohoku University)
T1 sequence (P97794 1-424): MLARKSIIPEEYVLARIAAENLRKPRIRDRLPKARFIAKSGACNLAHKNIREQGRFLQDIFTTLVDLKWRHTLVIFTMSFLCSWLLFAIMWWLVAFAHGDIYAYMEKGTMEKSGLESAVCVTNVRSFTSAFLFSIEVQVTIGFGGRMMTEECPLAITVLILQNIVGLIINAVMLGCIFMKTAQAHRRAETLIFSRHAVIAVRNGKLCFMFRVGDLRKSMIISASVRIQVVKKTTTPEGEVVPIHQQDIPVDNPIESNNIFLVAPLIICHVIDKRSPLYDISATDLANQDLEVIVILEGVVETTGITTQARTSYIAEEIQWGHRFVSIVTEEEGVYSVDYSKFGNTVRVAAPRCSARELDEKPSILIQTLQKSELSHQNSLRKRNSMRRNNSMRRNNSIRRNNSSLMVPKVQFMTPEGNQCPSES
Experimental: A plasmid vector having cDNA of Kir6.1 channel inserted therein: pcDNA3.1-Kir6.1, was obtained from professor Toru Ishizuka of Graduate School of Life Sciences, Tohoku University. N2A cells overexpressing Kir6.1 channel were obtained in the same manner as in “preparation of N2A cells overexpressing Kir6.2 channel” of Test Example 1 except that the above plasmid was used.
Using Kir6.1 channel-overexpressing cells obtained, potassium current flowing outside from cells was measured by the ordinary patch-clamp method. ATP-sensitive potassium channel (Kir6.1 channel) was localized in the cell membrane of the nerve cells. If the channel is inhibited and clogged, the threshold of the nerve cell membrane rises to produce the analogous state as where an action potential is temporarily generated, with the result that potassium current flows out from cells outside and, in place, calcium current flows into the cells from outside. […] This was confirmed by applying immunoblotting (the same conditions as in Test Example 1 were employed except that anti-Kir6.1 channel antibody, n=5) with an anti-Kir6.1 channel antibody (prepared based on an ordinary method) to Kir6.1 channel-overexpressing cells (prepared by the aforementioned method).

[1] = system: Kir6.2 channel deficient mice; test: Cognitive function tests and LTP in Kir6.2 channel deficient mice; format: in vivo; conditions: chronic treatment (two months)
From the text: To confirm that TP-014 action is Kir6.2 channel inhibitory action, the action site of TP-014 was identified by the same behavioral experiment as in FIG. 4 (FIG. 8a and FIG. 8b: Y-maze test, FIG. 8c: new object recognition test method, FIG. 8d: fear conditioning test method, FIG. 8e to FIG. 8g: LTP improvement evaluation, n=5 per group) using Kir6.2 channel deficient mice. It was confirmed that cognitive dysfunction is induced in Kir6.2 defective mice. […] It was also shown that memory disturbance and LTP attenuation of Kir6.2 defective mice are not improved by TP-014 chronic treatment (two months). […] The analytical methods are the same as in Test Examples 4 to 7. Note that, Kir6.2 defective mice were obtained from Professor Susumu Seino, School of Medicine of Kobe University (Miki T et al., Proc. Natl. Acad. Sci. U.S.A. 1998, 95, 10402-10406).

[2] = system: WT mice administered with corticosterone; test: Anxiety-related behavioral tests (elevated plus-maze, light/dark, marble burying, open field, fear conditioning) in WT mice administered with corticosterone; format: in vivo; conditions: WT mice + corticosterone 5 mg/kg; TP-014 1 mg/kg oral once a day for 2 weeks; all five tests
Experimental: Using WT mice (C57BL/6J, Japan SLC, two months old) administered with corticosterone (dose of 5 mg/kg was administered once a day for 2 weeks); and Kir6.1 defective mice administered with corticosterone, as disease model mice showing anxiety-like symptoms, five behavioral tests regarding anxiety-related behavior were conducted. Note that, the Kir6.1 defective mice were obtained from Professor Susumu Seino, School of Medicine of Kobe University (Miki T et al., Nature Medicine 2002, 8, 466-472).
To the WT mice and Kir6.1 defective mice administered with corticosterone, TP-014 (1 mg/kg) was administered via the oral route once a day for 2 weeks (chronic treatment). As a result, it was confirmed that a significant anxiety symptom acceleration improving effect was obtained. […]
The time until a mouse placed in a black box (dark place) feels anxiety to light and comes out of the box to a bright place) was measured. […]
In the cage for housing a mouse is filled with wood chip bedding and 20 marbles are placed such that a mouse can see them. […] The number of marbles buried and hidden in the wood chip bedding is counted. […]
Using the same test apparatus as in the light/dark test method, a mouse is placed in a dark place, and then, sound (treble) is produced for 30 seconds and thereafter electrical stimulation is given for 3 seconds. […] The immobility time of the mouse is measured. […]

outward potassium current (Kir6.1 channel): suppressed
Compound: O=C(N[C@@H](c1ccccc1)[C@H]1[C@H]2C[C@@H]3C[C@](Cl)(C2)C[C@@]1(OC(=O)C(F)(F)F)C3)C(F)(F)F [TP-014, (1S,2R,3S,5S,7S)-5-chloro-2-((R)-phenyl(2,2,2-trifluoroacetamido)methyl)adamantan-1-yl 2,2,2-trifluoroacetate]
depression-like symptom (increase of immobility time) in CaMKIV defective mice (CaMKIV defective mice): no effect | memory disturbance and LTP attenuation of Kir6.2 defective mice [1]: not improved | acceleration of anxiety-like symptom [2]: improve acceleration of anxiety-like symptom

— US10487045B2, “Adamantane derivative and use thereof” (TOHOKU UNIVERSITY, priority 2016, dated 2019)
